The numbers were not newly measured in patent US11369558B1, “Multi-component nutritional supplement formulations and treatment regimen” (priority 2018, dated 2022), which cites them from elsewhere.

The conditions of this data set: in the human body.

For `C[S+](C)[O-]` [DMSO, dimethyl sulfoxide], the “Share of DMSO converted to MSM” value is reported as “approximately 15%”.
